Test results from BindingDB's records for PubMed 9864265 (Second Tokushima Institute of New Drug Research, 1998).

Legend:
Vasopressin V1a receptor = Vasopressin V1a receptor (Rattus norvegicus, UniProt P30560)
Vasopressin V1b receptor = target: T1, Vasopressin V1b receptor (Homo sapiens, UniProt P47901)
T1 sequence (P47901 whole entry): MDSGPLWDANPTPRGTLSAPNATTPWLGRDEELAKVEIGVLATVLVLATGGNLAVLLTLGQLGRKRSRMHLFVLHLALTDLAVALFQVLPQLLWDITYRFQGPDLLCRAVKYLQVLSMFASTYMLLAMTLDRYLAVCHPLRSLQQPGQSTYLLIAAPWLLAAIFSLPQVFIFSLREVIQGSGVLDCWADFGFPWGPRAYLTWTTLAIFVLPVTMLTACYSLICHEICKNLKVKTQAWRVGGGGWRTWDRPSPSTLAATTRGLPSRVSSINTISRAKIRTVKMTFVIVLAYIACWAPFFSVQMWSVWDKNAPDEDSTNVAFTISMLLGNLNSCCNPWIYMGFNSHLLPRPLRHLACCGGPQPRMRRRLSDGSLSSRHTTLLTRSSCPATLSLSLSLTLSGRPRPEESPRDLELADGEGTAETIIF

Vasopressin V2 receptor = Vasopressin V2 receptor (Rattus norvegicus, UniProt Q00788)
Sequence of Vasopressin V2 receptor (Q00788 whole entry): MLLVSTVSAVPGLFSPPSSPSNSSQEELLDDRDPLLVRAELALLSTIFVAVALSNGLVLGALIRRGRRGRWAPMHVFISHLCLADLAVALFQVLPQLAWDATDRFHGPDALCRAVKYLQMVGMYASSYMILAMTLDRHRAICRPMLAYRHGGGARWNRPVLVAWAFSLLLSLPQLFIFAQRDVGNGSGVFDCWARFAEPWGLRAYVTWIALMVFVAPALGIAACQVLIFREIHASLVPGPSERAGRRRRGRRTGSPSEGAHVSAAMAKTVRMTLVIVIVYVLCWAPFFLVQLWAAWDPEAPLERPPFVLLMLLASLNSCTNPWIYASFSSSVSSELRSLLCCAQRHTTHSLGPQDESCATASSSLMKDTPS

Sequence of Vasopressin V1a receptor (P30560 whole entry): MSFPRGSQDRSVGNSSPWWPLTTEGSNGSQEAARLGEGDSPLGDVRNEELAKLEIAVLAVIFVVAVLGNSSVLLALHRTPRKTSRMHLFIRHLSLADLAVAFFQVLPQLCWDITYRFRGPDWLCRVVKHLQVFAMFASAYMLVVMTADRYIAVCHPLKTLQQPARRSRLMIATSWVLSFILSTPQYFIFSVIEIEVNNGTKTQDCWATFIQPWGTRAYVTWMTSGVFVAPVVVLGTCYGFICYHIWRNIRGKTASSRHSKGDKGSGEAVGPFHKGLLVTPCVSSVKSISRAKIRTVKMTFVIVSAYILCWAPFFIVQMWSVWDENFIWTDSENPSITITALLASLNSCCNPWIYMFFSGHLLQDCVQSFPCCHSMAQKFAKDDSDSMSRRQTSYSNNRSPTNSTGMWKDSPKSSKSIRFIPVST

Cc1ccccc1C(=O)Nc1ccc(C(=O)N2CCCC(N(C)C)c3ccccc32)cc1 (stereo not given)
Ki (Vasopressin V1a receptor): 0.524 µM | Ki (Vasopressin V1b receptor): > 10 µM

Cc1ccccc1C(=O)Nc1ccc(C(=O)N2CCCC(O)c3cc(Cl)ccc32)c(C)c1 (stereo not given)
Ki (Vasopressin V1a receptor): 0.325 µM | Ki (Vasopressin V2 receptor): 0.00133 µM | Ki (Vasopressin V1b receptor): > 10 µM
